From paper PMC9024338, “Bruceine H Mediates EGFR-TKI Drug Persistence in NSCLC by Notch3-Dependent β-Catenin Activating FOXO3a Signaling” (Frontiers in Oncology, 2022)

How the values were obtained:
PC-9/GR cells [1] = experiment: Apoptosis by flow cytometry (Annexin V-FITC/PI), PC-9/GR; type: cell-based, human; settings: low-dose BH (4, 8 μM), gefitinib 25 μM, alone or combined
Protocol: After being digested with trypsin without EDTA, the cells were washed gently with culture medium and twice with cold PBS. The pellet was resuspended in 400 μl of 1× binding buffer, the resuspended cells were transferred to flow tubes, then Annexin V-FITC (5 μl) and propidium iodide (10 μl) were added, and the mixture was incubated for 15 min at room temperature in the dark. The percentage of apoptotic cells was determined by flow cytometry (Backman, CA, USA) and FlowJo V10 software.

[2] = Toxicity study in nude mice: organ index, blood routine, serum biochemistry; type: in vivo
Protocol: At the end of the experiment, blood samples were taken and analyzed by blood routine. […] The lungs and spleen were weighed and recorded. H&E staining of the heart, liver, spleen, lungs, and kidneys was performed to evaluate the cytotoxic effects of BH.

A549 xenografts = A549 xenografts in BALB/c nude mice; type: in vivo
Protocol: The total proteins of cells and tissues were extracted with RIPA cleavage buffer containing a protease inhibitor cocktail, phenylmethylsulfonyl fluoride (PMSF, Solarbio). The cell lysates (20 μg) were run on SDS-polyacrylamide gel (6%–10%) and transferred to the polyvinylidene fluoride membrane (PVDF, Millipore, MA, USA) by electrophoresis. The membrane was blocked with 5% skim milk in TBST for 2 h, incubated overnight with the corresponding primary antibody at 4°C, and then incubated with the corresponding secondary antibody at room temperature for 2 h. The reaction products were detected by chemiluminescence by ECL Western Blotting Detection System. Finally, quantitative analysis was carried out with ImageJ software.
The heart, liver, spleen, lung, kidney, and tumor tissues were embedded in paraffin, and the sections (4 µm) were stained with hematoxylin–eosin (H&E, Solarbio) and then examined and analyzed under a Leica DM6B microscope (Leica Microsystems, Wetzlar, Germany).
The tumor section was dewaxed and repaired with antigen, 3% H2O2 was added, and then the section was sealed with 10% goat serum at room temperature for 30 min. The first antibody against Ki-67 and Notch3 (CST) was incubated overnight at 4°C, and the second antibody was incubated at room temperature for 30 min. After DAB staining, the sections were counterstained with hematoxylin for 2 min and then observed and analyzed under a Leica microscope.
The animal procedures were approved by the Ethics Committee of the Experimental Animal Center of Jiangxi University of Chinese Medicine (Nanchang, China, SCXK 2016-0006) and conducted following the Guide for the Care and Use of Laboratory Animals. Four-week-old male BALB/c nude mice (weighing 16–17 g, SPF grade) were obtained from Shanghai Shrek Experimental Animal Co., Ltd. (Shanghai, China). The xenotransplantation model was established by subcutaneous injection of A549 or PC-9/GR cells in nude mice, which were collected with PBS and mixed with an equal volume of Matrigel at a final concentration of 1 × 10^7/ml. […] Measurements of tumor size and body weight were conducted every 2 days with a vernier caliper and an electronic balance. Nodule growth was quantified by using the following formula: tumor volume (mm^3) = (short-diameter)^2 × large-diameter × π/6.

PC-9/GR cells [3] = experiment: CCK-8 cell viability assay, PC-9/GR (gefitinib-resistant); type: cell-based; settings: Homo sapiens, 48 h, Figure 3B, unit only in axis title Concentration (μM)
Protocol: The human NSCLC cell lines (A549, PC-9, and PC-9/GR) and other cell lines (16HBE and LO2) were purchased from the American Type Culture Collection (ATCC, Manassas, VA, USA). […] All cell lines were cultivated at 37°C under 5% CO2.
The Cell Counting Kit-8 assays (Beyotime, Shanghai, China) were performed to assess cell viability. […] Microplate readers (Infinite F500, Tecan, Mannedorf, Switzerland) were used to measure the absorbance (A) at 450 nm. All samples were assessed in triplicate.

[4] = nude mice serum, mean ± SD (Table S4)
[5] = nude mice, routine blood (Table S3)
[6] = nude mice, Gef 25, BH 2.5, Gef + BH 25 + 2.5 mg×kg^-1×d^-1, X±S

For `CC1=CC(=O)[C@@H](O)[C@]2(C)[C@H]3[C@@H](O)[C@H](O)[C@@]4(CO)OC[C@@]35[C@@H](C[C@@H]12)OC(=O)[C@H](O)[C@]54O` [BH, Bruceine H], which “apoptosis of PC-9/GR cells” value (PC-9/GR cells [1]) is on record?
The value was “little effects”.

What about the HDL-C [2, 4] of the same molecule?
Its HDL-C is 1.14 ± 0.18 mmol/L.

What about the LDL-C [2, 4] of the same molecule?
Its LDL-C is 1.40 ± 0.08 mmol/L.

And the TC [2, 4]?
Its TC is 3.25 ± 0.21 mmol/L.

And the TG [2, 4]?
The TG was 0.70 ± 0.16 mmol/L.

And the GR [2, 5]?
Its GR is 3.36±2.394 ×10^9/L.

What about the “GR (%)” value [2, 5] of the same molecule?
The value was 80.567±11.274%.

And the HCT [2, 5]?
Its HCT is 62.867±5.658%.

What about the HGB [2, 5] of the same molecule?
The HGB was 172.333 ± 12.014 g/L.

And the LY [2, 5]?
The LY was 0.920±0.401 ×10^9/L.

And the “LY (%)” value [2, 5]?
The value was 14.7±6.165%.

And the MCH [2, 5]?
The MCH was 15.567 ± 0.289 pg.

What about the MCHC [2, 5] of the same molecule?
Its MCHC is 296.333 ± 10.970 g/L.

What about the MCV [2, 5] of the same molecule?
The MCV was 52.567 ± 1.823 fL.

What about the MO [2, 5] of the same molecule?
The MO was 0.242±0.045 ×10^9/L.

And the “MO (%)” value [2, 5]?
Its value is 5.043±1.086%.

And the MPV [2, 5]?
The MPV was 7.267 ± 0.208 fL.

What about the PCT [2, 5] of the same molecule?
The PCT was 0.753±0.195 mL/L.

What about the PLT [2, 5] of the same molecule?
The PLT was 1030±241.156 ×10^9/L.

And the RBC [2, 5]?
The RBC was 13.193±1.792 ×10^12/L.

What about the WBC [2, 5] of the same molecule?
Its WBC is 6.633±2.371 ×10^8/L.

And the Lung index [2, 6]?
The Lung index was 32.463 ± 2.078 g/kg.

What about the Spleen index [2, 6] of the same molecule?
The Spleen index was 5.949 ± 0.526 g/kg.

And the “growth of A549 xenografts” value (A549 xenografts; 2.5 or 5 mg/kg intragastric, 16 days)?
The value was “significantly inhibited”.

What about the “organ indexes of heart, kidney, liver, lung, spleen” value (A549 xenografts; A549 xenograft mice) of the same molecule?
The value was “no significant changes”.

And the body weight (A549 xenografts; A549 xenograft mice, 2.5 and 5 mg/kg)?
The body weight was “without significant changes”.

What about the “Notch3 expression in tumor xenografts” value (A549 xenografts; A549 xenografts, IHC, vs model group) of the same molecule?
The value was “decreased in a dose-dependent manner”.

And the “number of Ki-67-positive cells in cancer tissues” value (A549 xenografts; A549 xenografts, IHC, vs vehicle)?
The value was “decreased”.

And the “Notch3, β-catenin, and Bcl-2 protein levels in tumor tissues” value (A549 xenografts; A549 xenografts, Western blot)?
The value was “decreased”.

What about the “expression of FOXO3a in tumor tissues” value (A549 xenografts; A549 xenografts, Western blot) of the same molecule?
The value was “increased”.

What about the IC50 (PC-9/GR cells [3]) of the same molecule?
Its IC50 is 21.7 µM.
